Data as given in PubChem BioAssay (NCI).
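The compound was tested at five concentrations on cells cultured in 96-well plates, with a 48-hour exposure period. GI50 marks 50% less growth. The concentration for full growth arrest is given as TGI.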

Assays:
Assay in all cases: inhibition of tumour cell growth, NCI panel, 48 h
[1] = test system: SK-MEL-2 melanoma
[2] = test system: COLO 205 colon
[3] = test system: T-47D breast
[4] = test system: HOP-92 NSCLC
[5] = test system: A549 NSCLC
[6] = test system: OVCAR-8 ovarian
[7] = test system: M14 melanoma
[8] = test system: NCI/ADR-RES ovarian
[9] = test system: HOP-62 NSCLC
[10] = test system: DU-145 prostate

`CCCC(=O)Nc1c(I)cc(I)c(CC(CC)C(=O)O)c1I` (stereo not given) gave a GI50 [1] of over 100 µM, a TGI [1] of over 100 µM and a GI50 [2] of over 100 µM. For the same molecule, the TGI [2] was over 100 µM, the GI50 [3] was over 100 µM and the TGI [3] was over 100 µM. It also gave a GI50 [4] of over 100 µM, a TGI [4] of over 100 µM and a GI50 [5] of over 100 µM. It also gave a TGI [5] of over 100 µM, a GI50 [6] of over 100 µM and a TGI [6] of over 100 µM. For the same molecule, the GI50 [7] was over 100 µM, the TGI [7] was over 100 µM and the GI50 [8] was over 100 µM. For the same molecule, the TGI [8] was over 100 µM, the GI50 [9] was over 100 µM and the TGI [9] was over 100 µM. It also gave a GI50 [10] of over 100 µM and a TGI [10] of over 100 µM.
